Where “and” joins values, the source holds several entries; their conditions need not be identical. Equal entries are not always repeated.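 96-well plates; 48 h exposure; 5 concentrations. Endpoints by linear interpolation between flanking doses. Not reached: highest tested concentration assigned. At the GI50, growth is halved. Definition used: TGI = concentration required for complete inhibition of growth.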

Test systems include BT-549 breast; KM20L2 colon; MCF7 breast; MDA-N; HOP-18 NSCLC; MDA-MB-435; DLD-1 colon; PC-3 prostate; NCI/ADR-RES ovarian; RXF-631 renal.
Common to all, as to experiment: growth of human tumour cells (NCI), 48 h

For `CC[C@@]1(O)C(=O)OCc2c1cc1n(c2=O)Cc2cc3cc(N)ccc3nc2-1`, the GI50 with BT-549 breast was 0.158 µM; in the assay with KM20L2 colon it was 0.0314 µM and 0.0373 µM; in the assay with MCF7 breast it was 0.00165 µM; in the assay with MDA-N, 0.227 µM; in the assay with MDA-MB-435, 0.12 µM and 0.0188 µM; with DLD-1 colon, 0.0885 µM and 0.346 µM. In addition, the GI50 with PC-3 prostate is 0.141 µM and 0.0842 µM. Further, the TGI with BT-549 breast was 1.11 µM; in the assay on KM20L2 colon, 0.854 µM and 0.547 µM; in the assay on MCF7 breast it was 5.73 µM; with MDA-N, 1.4 µM and 0.27 µM; in the assay with HOP-18 NSCLC it was over 100 µM; in the assay on MDA-MB-435, 0.663 µM and 0.133 µM. The TGI was over 100 µM in the assay with DLD-1 colon; 0.169 µM and 0.116 µM in the assay with NCI/ADR-RES ovarian.
With `CN=C1SC(=Nc2ccc(N(C)C)cc2)N1C`, the TGI with HOP-18 NSCLC and in the assay with DLD-1 colon was over 100 µM throughout.
As to `O=C1NC2(CN3CCC2CC3)C(=O)N1CN(Cc1ccccc1)c1ccccc1` (stereo unspecified), the TGI in the assay with BT-549 breast, in the assay with MCF7 breast, in the assay with MDA-N, in the assay on MDA-MB-435, in the assay with PC-3 prostate and in the assay on NCI/ADR-RES ovarian was over 100 µM each time.
On to `CC1(C)C2CCC3(C2)CS(=O)(=O)N2OC231` (stereo unspecified), for which the TGI is 30.6 µM with KM20L2 colon, 32.1 µM with HOP-18 NSCLC and 47.5 µM in the assay on DLD-1 colon.
In the case of `CCN(CC)CCNc1n[n+]([O-])c2ccccc2[n+]1[O-]`, the TGI with BT-549 breast was 34.2 µM and 74.1 µM; in the assay with MCF7 breast, 37.6 µM and 26.2 µM; in the assay on MDA-N, > 100 µM and 31.8 µM; in the assay with MDA-MB-435 it was 50 µM and > 100 µM; in the assay with PC-3 prostate it was over 100 µM; in the assay with NCI/ADR-RES ovarian it was 85.6 µM and > 100 µM. In the assay with MCF7 breast, the GI50 was 5.43 µM and 2.55 µM.
As to `O=[N+]([O-])c1nccn1COCCBr`, the TGI with KM20L2 colon and in the assay with DLD-1 colon was over 100 µM each time.
As to `CN[C@@H]1C[C@H]2O[C@@](C)([C@@H]1OC)n1c3ccccc3c3c4c(c5c6ccccc6n2c5c31)C(=O)N[C@@H]4O`, the figures for the GI50 in the assay with BT-549 breast, in the assay on MDA-MB-435 and in the assay with NCI/ADR-RES ovarian were 0.0193 µM, 0.0478 µM and 0.105 µM, respectively. Also, the TGI is 0.3 µM and 0.627 µM in the assay with BT-549 breast; 2.53 µM in the assay on KM20L2 colon; 0.3 µM and 2.51 µM in the assay on MCF7 breast; 1.6 µM with MDA-N; 0.268 µM in the assay with HOP-18 NSCLC; 0.3 µM and 1.88 µM in the assay with MDA-MB-435. The TGI was 15 µM in the assay on DLD-1 colon; 0.258 µM and 0.13 µM with PC-3 prostate; 0.3 µM and 0.42 µM in the assay on NCI/ADR-RES ovarian.
Regarding `O=c1ccc(=O)c2c(=O)c3ccccc3c(=O)c1=2`, in the assay on DLD-1 colon, the TGI is over 100 µM.
Regarding `O=C1C2Cc3ccccc3CN2C(=O)N1CCN1CCCC1` (stereo unspecified), the TGI with RXF-631 renal, with KM20L2 colon and in the assay on DLD-1 colon was over 100 µM each time.
Regarding `Cc1nc(C(N)=S)sc1C(=O)C/C(=N/N)C(=O)Nc1cccc(Cl)c1C`, the TGI in the assay with BT-549 breast, with MCF7 breast, with MDA-N, in the assay with MDA-MB-435, with PC-3 prostate and in the assay with NCI/ADR-RES ovarian was over 100 µM throughout.
For `O=Cc1ccc(-c2cccs2)s1`, the TGI was over 100 µM with BT-549 breast; 12.9 µM in the assay on RXF-631 renal; over 100 µM with KM20L2 colon; 17.6 µM with MCF7 breast; over 100 µM with MDA-N; over 100 µM in the assay on HOP-18 NSCLC. Also, the TGI with MDA-MB-435 was over 100 µM; with DLD-1 colon, over 74.9 µM; with PC-3 prostate, over 100 µM; in the assay on NCI/ADR-RES ovarian, over 100 µM.
For `O=[N+]([O-])c1ccc2c(c1)[O][Sn]([I])([I])[O]2`, in the assay with KM20L2 colon, the GI50 is over 100 µM and the TGI is over 100 µM. Besides, in the assay with DLD-1 colon, the GI50 is over 100 µM and the TGI is over 100 µM.
Regarding `CCOC(=O)[C@H]1Nc2ccc(OC)cc2C2c3ccccc3CC21` (stereo partly specified), the TGI with RXF-631 renal, in the assay on KM20L2 colon and in the assay with DLD-1 colon was over 100 µM in each case.
On to `CCN(CC)c1ccc2c(c1)Nc1cc(=C(C#N)C#N)c3ccccc3c1=N2`, for which the TGI in the assay with RXF-631 renal, in the assay with KM20L2 colon, in the assay on HOP-18 NSCLC and in the assay with DLD-1 colon was over 100 µM each time.
On to `OCC1OC(n2cnc3c(/C=C(/O)c4ccccc4)ncnc32)C(O)C1O` (stereo unspecified), for which the TGI is over 100 µM in the assay on BT-549 breast; over 100 µM with MCF7 breast; over 100 µM in the assay on MDA-N; over 100 µM in the assay on MDA-MB-435; over 62.4 µM in the assay with PC-3 prostate; over 92 µM in the assay with NCI/ADR-RES ovarian.
Regarding `CN1C(=O)C(Cl)(C(Cl)(Cl)S(=O)(=O)O)C(=O)c2ccccc21` (stereo unspecified), the TGI with KM20L2 colon was 40.6 µM; in the assay on DLD-1 colon, over 100 µM.
In the case of `O=c1[nH]c(=O)n(C2OC3COC2C3O)cc1F` (stereo unspecified), the TGI with RXF-631 renal, in the assay with KM20L2 colon, in the assay on HOP-18 NSCLC and in the assay on DLD-1 colon was over 100 µM each time.
Regarding `Cn1c(=O)c2c(ncn2CN2CCN(Cn3cnc4c3c(=O)n(C)c(=O)n4C)CC2)n(C)c1=O`, the TGI in the assay on BT-549 breast was over 100 µM; in the assay with MCF7 breast, 35.7 µM; with MDA-N it was over 100 µM; with MDA-MB-435, over 100 µM; with PC-3 prostate, over 100 µM; in the assay on NCI/ADR-RES ovarian, over 100 µM.
Take `Cc1ccc(SC(=O)N2C(=S)NC(=NC3CCCCC3)C23CCCCC3)cc1`: the TGI in the assay on BT-549 breast, in the assay with MCF7 breast, with MDA-N, with MDA-MB-435, with PC-3 prostate and in the assay with NCI/ADR-RES ovarian was over 100 µM throughout.
Take `Cc1cc2c(=O)c3ccccc3[nH]c2c(C(=O)O)c1C`: the TGI in the assay on KM20L2 colon and with DLD-1 colon was over 100 µM each time.
On to `COc1ccc2c(c1)[n+]([O-])c(/C(C)=N/NC(=O)CC#N)c[n+]2[O-]`, for which the TGI in the assay on RXF-631 renal, with KM20L2 colon, in the assay with HOP-18 NSCLC and in the assay with DLD-1 colon was over 100 µM each time.
Take `COC(=O)C1=C(CS(=O)c2ccccc2[N+](=O)[O-])ON(C)C1c1ccccc1` (stereo unspecified): the TGI with KM20L2 colon was 85.1 µM; with HOP-18 NSCLC it was over 100 µM; in the assay on DLD-1 colon, over 100 µM.

For the origin of these results see PubChem BioAssay (NCI).
